Measurements as given in article PMC9822155, “Synthesis and Antiproliferative Activity against Cancer Cells of Indole-Aryl-Amide Derivatives” (Molecules, 2022).

What was measured:
[1] = test system: 3T3 (mouse embryonic fibroblast) cells; experiment: MTT viability assay, 3T3; assay type: cell-based; details: 24 h, normal cells
Source text: (§1) To investigate whether the compounds have an antitumor activity, we performed in vitro viability assays against a panel of cancer cell lines: HT29 (human colorectal adenocarcinoma), HeLa (human cervical carcinoma), IGROV-1 (human ovarian carcinoma), MCF7 (human breast cancer), PC-3 (human prostate adenocarcinoma), and Jurkat J6 (human […]). The I407 (human embryonic intestinal) and 3T3 (mouse embryonic fibroblast) cells were used as controls. The growth inhibitory concentration was determined by incubating the cells with increasing concentrations (0.01–500 μM) of the compounds for 24 h. Data obtained from cell growth assays were elaborated to assess the concentration of cell viability (IC50) and selectivity indices (SI), and the results are shown in Table 2 and Table 3, respectively.
(§2) HT29 human colorectal adenocarcinoma cells, HeLa human cervix adenocarcinoma cells, MCF7 human breast adenocarcinoma cells, PC-3 human prostate adenocarcinoma cells, J6 Jurkat Clone E6-1 acute T cell leukemia, the healthy I407 human intestine cells, and mouse embryonic fibroblast 3T3 fibroblasts as controls cell lines were purchased from American Type Culture Collection (ATCC, Manassas, VA). The human ovarian cancer cell line IGROV1 has been kindly provided by Prof. Colnaghi (Istituto Nazionale Tumori (IRCCS) (Milano, Italy). Cells were cultured in RPMI 1640 medium (Labtek Eurobio, Milan, Italy), supplemented with 10% FCS (Euroclone, Milano, Italy) and 2 mM L-glutamine (Sigma-Aldrich, Milano, Italy), at 37 °C, and a 5% CO2 atmosphere. The compounds were dissolved in DMSO in a 30–40 mM stock solution. In cell treatments, the final DMSO concentration never exceeded 0.1%.
(§3) Cells were seeded at 1.5 × 10^4 cells/well in a 96-well culture plastic plate (Sarsted, Milan, Italy), and after 24 h of growth were exposed to increasing concentrations of each distinct compound (from 0.010 μM to 500 μM) solubilized in RPMI 1640 medium. MTT assay was performed according to the literature. In brief, after 24 h of treatment, the culture medium was replaced with 0.1 mL of 3-(4,5-dimethylthiazolyl-2)-2,5-diphenyltetrazolium bromide (MTT, Sigma-Aldrich, Milano, Italy) dissolved in PBS at the concentration of 0.2 mg/mL, and samples were incubated for 2 h at 37 °C. The absorbance at 570 nm was measured using a multiwell plate reader (Tecan, Männemorf, Switzerland), and data were analyzed by Prism GraphPad software, and expressed as IC50 μM.

[2] = test system: IGROV-1 (human ovarian carcinoma) cells; experiment: MTT viability assay, IGROV-1; assay type: cell-based; details: 24 h
Source text: as §1, §2, §3

[3] = test system: PC-3 (human prostate adenocarcinoma) cells; experiment: MTT viability assay, PC3; assay type: cell-based
Source text: as §1, §2, §3

[4] = test system: p27, p21 and Bax proteins in HT29 cells; experiment: Western blot of p27, p21, Bax proteins; assay type: cell-based, human; details: HT29, 5 μM, 24 h
Method: P27, p21, and Bax proteins expressions were analysed by western blot in control HT29 and treated with 5 μM of 5 for 24 h.
HT29 cells were seeded in 25 cm^2 flasks at a density of 2 × 10^4 cells/cm^2, and after 24 h, they were treated with 5 μM of compound 5. After 24 h, both treated and control cells were washed twice with PBS and lysed in RIPA buffer [50 mMTris/HCl, 150 mMNaCl, SDS (1% v/v), Triton X-100 (1% v/v), 1 mM EDTA, pH 7.6]. Cell lysates were centrifuged at 12,000× g for 20 min, and the protein concentration was determined by using the Bio-Rad protein assay method (Bio-Rad, Hercules, CA, USA). The proteins were detected resolving samples on a 12% gel in Tris-Glycine buffer at 200 V for 50 min. Western Blot was performed in transfer buffer at 100 V for 1 h. The nitrocellulose membrane was incubated with primary antibodies for rabbit anti-p21 (Millipore, Billerica, MA, USA) or rabbit anti-p27 (Millipore, Billerica, MA) or mouse anti-Bax (Millipore, Billerica, MA, USA) or mouse anti-α tubulin (Invitrogen, Walthman, MA, USA) for 1 h. Detection of immunoreactive bands was performed by using a rabbit or mouse HRP-conjugated secondary antibody (GE Healthcare, Milan, Italy), followed by Amersham ECL Plus Western Blotting Detection System (GE Healthcare, Milan, Italy). Densitometry analysis of immunoreactive bands was done by Fluor-S Max MultiImager (Bio-Rad, Hercules, CA, USA). Relative quantification of bands was performed by using an α-tubulin signal as control.

[5] = target: T1, κ-OR (Homo sapiens, UniProt P41145); experiment: Radioligand binding assay, κ-OR ([3H]U-69593 displacement); details: [3H]U-69593, membranes of CHO cells with human recombinant OR; ± SEM (n ≥ 3)
T1 construct: purchased PerkinElmer (Krakow, Poland); host or cells: CHO cells (membranes)
T1 sequence (P41145 whole entry): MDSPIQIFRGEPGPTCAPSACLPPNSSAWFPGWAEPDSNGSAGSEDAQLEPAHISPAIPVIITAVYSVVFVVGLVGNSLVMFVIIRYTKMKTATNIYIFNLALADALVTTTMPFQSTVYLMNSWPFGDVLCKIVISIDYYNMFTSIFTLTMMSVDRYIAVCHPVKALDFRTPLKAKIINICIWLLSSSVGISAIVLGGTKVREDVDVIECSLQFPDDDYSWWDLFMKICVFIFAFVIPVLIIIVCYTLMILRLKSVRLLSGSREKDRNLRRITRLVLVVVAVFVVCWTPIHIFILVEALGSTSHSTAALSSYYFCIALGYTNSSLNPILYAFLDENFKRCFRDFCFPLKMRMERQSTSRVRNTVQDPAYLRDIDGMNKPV
Method: In order to evaluate the affinity of the compounds for μ-, δ-, κ-ORs, radioligand binding assays were performed. Displacement of radioligands, [^3H]DAMGO (μ-OR selective), [^3H]deltorphin-2 (δ-OR selective), and [^3H]U-69593 (κ-OR selective) by the synthetic analogs was investigated in the commercial membranes of CHO cells transfected with human recombinant ORs. […] Due to the modest receptor affinities, the functional activity of the compounds was not investigated.
Opioid radioligands, [^3H]DAMGO, [^3H]deltorphin-2 and [^3H]U-69593, and human recombinant opioid receptors came from PerkinElmer (Krakow, Poland). GF/B glass fiber strips were purchased from Whatman (Brentford, UK).
To determine the affinity of peptide analogs at the respective receptors, competition binding experiments were performed. Commercial membranes of CHO cells stably expressing human opioid receptors and the competing radioligands, [^3H]DAMGO, [^3H]deltorphin-2, and [^3H]U-69593 for μ-OR, δ-OR, and κ-OR, respectively, were used. Membranes were incubated in 0.5 mL volume of 50 mM Tris/HCl (pH = 7.4), 0.5% bovine serum albumin (BSA), with a number of peptidase inhibitors (bacitracin, bestatin, captopril) and various concentrations of radioligands for 2 h at 25 °C. Non-specific binding was assessed in the presence of […]. Three independent experiments for each assay were carried out in duplicate. The data were analyzed by a nonlinear least square regression analysis computer program Graph Pad PRISM 6.0 (Graph Pad Software Inc., San Diego, CA, USA). The IC50 values were determined from the logarithmic concentration-displacement curves, and the values of the inhibitory constants (Ki) were calculated according to the equation of Cheng and Prusoff.

## Nc1ccc(CN(Cc2ccc(O)cc2)C(=O)Cc2c[nH]c3ccccc23)cc1 [Compound 5]
[1]
  IC50: 32 ± 0.02 µM
[2]
  IC50: > 500 µM
[3]; 3T3 normal cells as reference
  Selectivity Index IC503T3/ IC50PC3: 82.051
[3]; Homo sapiens, MTT, 24 h
  IC50: 0.39 ± 0.07 µM
[4]
  Bax protein expression: increase
  p21 protein expression: increase
  p27 protein expression: did not modify the expression
[5]
  Ki: 3.8 ± 0.52 µM
  Ki (µM) κ-OR: low μM range
